Where two headings read alike, the source gives them in different places. No end group written: not given here.
Key:
in vitro [1] = assay type: cell-based, human; conditions: human, human red blood cells
[2] = test system: MCF7 line of breast cancer cells
[3] = Leukocyte (WBC) inhibition, toxicity LD50; assay type: cell-based, human; conditions: male, human, human leukocytes (buffy coat cells, mostly PBMCs); Table 41, lower part
Protocol: In vitro viability of human leukocyte cells in the presence of different peptides at different concentrations was determined by an Alamar Blue protocol. Alamar Blue (Promega, Madison, Wis.) is an indicator dye, formulated to measure quantitatively the proliferation and cytotoxicity of the cells. The dye consists of an oxidation-reduction (redox) indicator that yields a calorimetric change and a fluorescent signal in response to cellular metabolic activity.
Assay protocol: Blood from a human was drawn and centrifuged at 1500 rpm for 15 minutes at room temperature. The buffy coat cells at the plasma-red blood cell interface were aspirated. Buffy coat cells (mainly lymphocyte cells) were then transferred into 15 ml centrifuge tubes containing 5 ml of RPMI-1640 medium+10% Fetal Bovine Serum (Gibco, Grand Island, N.Y.). Additional medium was added to the tubes to bring the volume up to 10 ml. The buffy coat suspension was then carefully layered on 5 ml of Histopaque (Sigma Chemical Co., St. Louis, Mo.) and centrifuged at 1500 rpm for 30 minutes at room temperature. The interface which is mostly PBMCs (peripheral mononuclear cells) was aspirated and transferred to a 15 ml conical centrifuge tube and, resuspended in 2 ml cold RPMI-1640 and brought up to 15 ml with cold RPMI-1640 medium. Cells were centrifuged at 1500 rpm for 10 minutes. The supernatant was then aspirated and discarded. The cell pellet was re-suspended in 1 ml of cold RPMI 1640 and brought up to 15 ml with RPMI medium. This step was repeated twice, except that in the last step, the cells were resuspended with 1 ml of cold RPMI-1640 medium and cell counts were performed with a hemocytometer according to the Sigma cell culture catalogue.
Pokewood mitogen was used as a control along with positive and negative controls. Negative control cells were killed with 70% methanol. Positive (+) control cells were incubated in RPMI medium (untreated). […] of AlamarBlue was added to the cells, and readings were taken after 24 hours, 48 hours, 72 hours, and 96 hours using a fluorimeter (excitation 544/transmission 590 nm).
In choosing a peptide for possible treatment of a given indication it is important to match the therapeutic activity and specificity of the peptide with its possible toxic properties.
The protocols for WBC and WI38 stimulation have been discussed above. The RBC protocol follows Table 24.

in vitro [4] = conditions: human, WI38 normal lung fibroblast cells
MCF7 = test: Anti-cancer assay, MTT, LD50; assay type: cell-based
From the text: (§1) Numbers are LD50 values (μg/mL).

[5] = test system: yeast (Saccharomyces cerevisiae); test: Antimicrobial assay I, yeast assay in RPMI 1640; assay type: cell-based; conditions: RPMI 1640 media
[6] = test system: clinical tobramycin resistant strain 960890198-3c; test: Activity against drug resistant strains; assay type: cell-based; conditions: clinical tobramycin resistant strain; Table 47
Protocol: (§2) Peptides were assayed for their activity against tobramycin sensitive and resistant strains.

[7] = test system: tobramycin sensitive (ts) Pseudomonas ATCC 27853; test: Activity against drug resistant strains; assay type: cell-based; conditions: tobramycin sensitive strain; Table 47
Protocol: as §2

[8] = test system: Pseudomonas aeruginosa ATCC 9027; test: Antimicrobial assay I, MIC by OD measurement; assay type: cell-based; conditions: 37° C. for 24 hours, absorbance 620 nm
[9] = test system: Staphylococcus aureus ATCC 6538; test: Antimicrobial assay I, MIC by OD measurement; assay type: cell-based; conditions: 37° C. for 24 hours, absorbance 620 nm
HeLaS3 = test: Anti-cancer assay, MTT, LD50; assay type: cell-based; conditions: 24 hours with peptide, cervical carcinoma
From the text: as §1

BMKC = test: Anti-cancer assay, MTT, LD50; assay type: cell-based; conditions: BMKC cloned melanoma line, 24 hours with peptide
From the text: as §1

PC3 = test: Anti-cancer assay, MTT, LD50; assay type: cell-based; conditions: 24 hours with peptide, prostate adenocarcinoma
From the text: as §1

SW480 = test: Anti-cancer assay, MTT, LD50; assay type: cell-based; conditions: SW480 colon adenocarcinoma line, 24 hours with peptide
From the text: as §1

H1299 = test: Anti-cancer assay, MTT, LD50; assay type: cell-based; conditions: 24 hours with peptide, lung large cell carcinoma
From the text: as §1

WI38 = conditions: MTT, 24 hours with peptide; normal fibroblast line
P. aeruginosa H374 = assay type: cell-based, Pseudomonas aeruginosa; conditions: for MIC Cm-comb.: MIC of chloramphenicol with peptide at ¼ MIC; for MIC Nal-comb.: MIC of nalidixic acid with peptide at ¼ MIC; for FIC Index: 0.5 or less = synergy
How it was run: (§3)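 Efflux-mutant strains were tested with two-fold serial dilutions of chloramphenicol or nalidixic acid, alone and with peptide held at ¼ of its own MIC.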

[10] = Solubility of peptides in sheep serum; assay type: physicochemical
Pseudomonas aeruginosa = test: Serum inactivation of peptides, serum MIC; assay type: cell-based; conditions: for MIC 30 min treatment: sheep serum 37° C. 30 minutes; for MIC 2 hr treatment: sheep serum 37° C. 2 hours
Protocol: Subsequently, the serum MICs against Pseudomonas aeruginosa were conducted to determine extent of serum inactivation of the peptides.

[11] = Synergy of Shiva-1 and lysozyme, percent viability; assay type: cell-based, Staphylococcus intermedius
Protocol: (§4) The percent viability of gram positive S. intermedius 19930, S. intermedius 20034, and S. aureus was determined relative to blank controls.

[12] = Synergy of Shiva-1 and lysozyme, percent viability; assay type: cell-based, Staphylococcus aureus; conditions: S. aureus
Protocol: as §4

[13] = Synergy of Shiva-1 and lysozyme, percent viability; assay type: cell-based, Pseudomonas aeruginosa; conditions: Pseudomonas aeruginosa
Protocol: The percent viability of Pseudomonas aeruginosa was determined relative to blank controls.

P. aeruginosa H774 = assay type: cell-based, Pseudomonas aeruginosa; conditions: P. aeruginosa H744; nalidixic acid + peptide at ¼ MIC; 0.5 or less = synergy
How it was run: as §3

P. aeruginosa = assay type: cell-based, Pseudomonas aeruginosa; conditions: P. aeruginosa H744; MIC of nalidixic acid with peptide at ¼ MIC
How it was run: as §3

[14] = pH 7, hemolytic assay, concentration at 50% hemolysis, 1 hour at 37° C., read-out: LD50
[15] = chloramphenicol + peptide at ¼ MIC
[16] = nalidixic acid + peptide at ¼ MIC, FIC=0.25+MIC comb/MIC alone

WALAL-NH2 [145 (184)]
HC50 at 1 h (in vitro [1]; pH 7, Table 41, lower part, read-out: RBC LD50): 850 µg/mL
MCF7 LD50 ([2]; agent alone): 240 µg/mL
Active agent LD50 on MCF7 cells: Total conc. ([2]; peptide plus tamoxifen concentration at LD50): 14 µg/mL
Active agent LD50 on MCF7 cells: Peptide conc. ([2]; peptide with tamoxifen, peptide concentration at LD50): 10 µg/mL
Active agent LD50 on MCF7 cells: Tamox. conc. ([2]; tamoxifen concentration at LD50 (peptide with tamoxifen; tamoxifen alone in its own line)): 4 µg/mL
CC50 [3]: 410 µg/mL
CC50 at 24 h (in vitro [4]; WI38 LD50, Table 41, lower part): 1000 µg/mL
MCF7 LD50 (MCF7; Table 41, lower part): 240 µg/mL

FAKALAKLAKKLL-NH2 [P92]
yeast (MIC or MFC) [5]: 50 µg/mL
HC50 at 1 h (in vitro [1]; [14]): 300 µg/mL
activity against tr Pseudomonas 960890198-3c [6]: 50
activity against ts Pseudomonas 27853 [7]: 63
paerug9027 (MIC) [8]: 5 µg/mL
staph6538 (MIC) [9]: 5 µg/mL
CC50 at 24 h (in vitro [4]; LD50 WI38, WI38 normal lung fibroblast line, MTT, 24 hours with peptide): 43 µg/mL
HeLaS3 LD50 (HeLaS3): 670 µg/mL
LD50 BMKC (BMKC): 46 µg/mL
PC3 LD50 (PC3): 83 µg/mL
LD50 SW480 (SW480): 51 µg/mL
H1299 LD50 (H1299): 25 µg/mL
LD50 MCF7 (MCF7; MCF7 breast adenocarcinoma line, MTT, 24 hours with peptide): 23 µg/mL
WI38 LD50 (WI38): 43 µg/mL

VALALKALKKALKKLKKALKKAL-OH [P508]
MIC Cm-comb. (P. aeruginosa H374): 8 µg/mL
MIC Nal-comb. (P. aeruginosa H374): 5000 µg/mL
FIC Index (P. aeruginosa H374; [15]): 0.75
FIC Index (P. aeruginosa H374; [16]): 1.25
Solubility ([10]; sheep serum, […], 70% serum): Soluble
Solubility ([10]; sheep, 70% sheep serum): ≥ 1280 µg/mL
HC50 at 1 h (in vitro [1]; [14]): 70 µg/mL
MIC 30 min treatment (Pseudomonas aeruginosa; first of two columns): 40 µg/mL
MIC 30 min treatment (Pseudomonas aeruginosa; second of two columns): 20 µg/mL
MIC 2 hr treatment (Pseudomonas aeruginosa; first of two columns): 40 µg/mL
MIC 2 hr treatment (Pseudomonas aeruginosa; second of two columns): 20 µg/mL
change of activity by exposure to serum (serum MIC against Pseudomonas aeruginosa) (Pseudomonas aeruginosa; sheep serum, […], 37° C. for 30 minutes or 2 hours): only modestly decreased

MPRWRLFRRIDRVGKQIKQGILRAGPAIALVGDARAVG [Shiva-1]
viability at 0.01 µM ([11]; S. intermedius 19930): 100%
viability at 0.1 µM ([11]; S. intermedius 19930): 81.8%
viability at 0.5 µM ([11]; S. intermedius 19930): 65%
viability at 1 µM ([11]; S. intermedius 19930): 42.1%
viability at 5 µM ([11]; S. intermedius 19930): 35.2%
viability at 10 µM ([11]; S. intermedius 19930): 1.2%
viability at 50 µM ([11]; S. intermedius 19930): 0%
viability at 0.01 µM ([11]; S. intermedius 20034): 100%
viability at 0.5 µM ([11]; S. intermedius 20034): 80%
viability at 5 µM ([11]; S. intermedius 20034): 4.1%
viability at 50 µM ([11]; S. intermedius 20034): 0%
viability at 0.01 µM [12]: 100%
viability at 0.1 µM [12]: 100%
viability at 0.5 µM [12]: 50.1%
viability at 1 µM [12]: 24.4%
viability at 5 µM [12]: 15.9%
viability at 10 µM [12]: 4.5%
viability at 50 µM [12]: 1.6%
viability at 0.01 µM [13]: 100%
viability at 0.1 µM [13]: 69.6%
viability at 1 µM [13]: 37.9%
viability at 5 µM [13]: 1.5%
viability at 25 µM [13]: 0%

FAKKLAKKLKKLAKKLAK-NH2 [P69]
FIC Index (P. aeruginosa H774): 0.75
MIC Cm-comb. (P. aeruginosa H374): 8 µg/mL
MIC Nal-comb. (P. aeruginosa H374): 2500 µg/mL
FIC Index (P. aeruginosa H374; [15]): 0.75
FIC Index (P. aeruginosa H374; [16]): 0.75
MIC Nal-comb. (P. aeruginosa): 312 µg/mL
Solubility ([10]; sheep serum, […], 70% serum): Precipitated
MIC 30 min treatment (Pseudomonas aeruginosa; first of two columns): 20 µg/mL
MIC 30 min treatment (Pseudomonas aeruginosa; second of two columns): 20 µg/mL
MIC 2 hr treatment (Pseudomonas aeruginosa; first of two columns): 20 µg/mL
MIC 2 hr treatment (Pseudomonas aeruginosa; second of two columns): 20 µg/mL
